# Laboratory results: patent US20070105875A1, “Fungicidal mixtures” (priority 2004, published 2007)
# Tested on: Corticium sasakii (syn. Rhizoctonia solani)
# Assay: Activity against sheath blight on rice caused by Corticium sasakii (protective spray test on potted rice plants)
# Assay type: in vivo
# Settings: individual active compound, rice cultivar Tai-Nong 67, evaluation after 11 days, untreated control 90% infection
# Method: The active compounds, separately or jointly, were prepared as a stock solution with 0.25% by weight of active compound in acetone or DMSO. 1% by weight of the emulsifier Uniperol® EL (wetting agent having emulsifying and dispersing action based on ethoxylated alkylphenols) was added to this solution, and the solution was diluted with water to the desired concentration.
# Activity Against Sheath Blight on Rice Caused by Corticium sasakii (syn. Rhizoctonia solani)
# Pots of rice plants of the cultivar “Tai-Nong 67” were sprayed to runoff point with an aqeuous suspension having the concentration of active compound stated below. The next day, oat grains infected with Corticium sasakii were placed into the pots (in each case 5 grains per pot). The plants were then placed in a chamber at 26° C. and maximum atmospheric humidity. After 11 days, the sheath blight on the untreated but infected control plants had developed to such an extent that the infection could be determined visually in %.
# Evaluation is carried out by determining the infected leaf areas in percent. These percentages were converted into efficacies.
# The efficacy (E) is calculated as follows using Abbot's formula: E=(1−α/β)·100 α corresponds to the fungicidal infection of the treated plants in % and β corresponds to the fungicidal infection of the untreated (control) plants in %
# An efficacy of 0 means that the infection level of the treated plants corresponds to that of the untreated control plants; an efficacy of 100 means that the treated plants are not infected.
# The expected efficacies of the mixtures of active compounds are determined using Colby's formula [R. S. Colby, Weeds 15, 20-22 (1967)] and compared with the observed efficacies.
# Colby's Formula: E=x+y−x·y/100 • E expected efficacy, expressed in % of the untreated control, when using the mixture of the active compounds A and B at the concentrations a and b • x efficacy, expressed in % of the untreated control, when using active compound A at the concentration a • y efficacy, expressed in % of the untreated control, when using active compound B at the concentration b
SMILES,Efficacy in % of the untreated control (1 ppm in the spray liquor),Efficacy in % of the untreated control (4 ppm in the spray liquor)
CC1CCN(c2c(-c3c(F)cccc3Cl)c(Cl)nc3ncnn23)CC1 [A],0%,
"CO/N=C(/C(=O)OC)c1ccccc1COc1ccccc1C [II (kresoxim-methyl), methyl methoxyimino-(2-o-tolyloxymethylphenyl)acetate]",0%,0%
C[C@H](Nc1c(-c2c(F)cc(F)cc2F)c(Cl)nc2ncnn12)C(F)(F)F [B],0%,
"CC1CCN(c2c(-c3c(F)cc(F)cc3F)c(Cl)nc3ncnn23)CC1 [I, 5-chloro-7-(4-methylpiperidin-1-yl)-6-(2,4,6-trifluorophenyl)-[1,2,4]triazolo[1,5-a]pyrimidine]",33%,
